Read-outs that look alike come from different tables or passages of the source.
Experiments:
Assay in all cases: biochemical
Set-up in all cases: Eurofins KinaseProfiler full panel at Km ATP, residual kinase activity (%) relative to DMSO
[1] = molecular target: T1, BMPR2(h) (Homo sapiens, UniProt Q13873)
T1 sequence (Q13873 1-1038): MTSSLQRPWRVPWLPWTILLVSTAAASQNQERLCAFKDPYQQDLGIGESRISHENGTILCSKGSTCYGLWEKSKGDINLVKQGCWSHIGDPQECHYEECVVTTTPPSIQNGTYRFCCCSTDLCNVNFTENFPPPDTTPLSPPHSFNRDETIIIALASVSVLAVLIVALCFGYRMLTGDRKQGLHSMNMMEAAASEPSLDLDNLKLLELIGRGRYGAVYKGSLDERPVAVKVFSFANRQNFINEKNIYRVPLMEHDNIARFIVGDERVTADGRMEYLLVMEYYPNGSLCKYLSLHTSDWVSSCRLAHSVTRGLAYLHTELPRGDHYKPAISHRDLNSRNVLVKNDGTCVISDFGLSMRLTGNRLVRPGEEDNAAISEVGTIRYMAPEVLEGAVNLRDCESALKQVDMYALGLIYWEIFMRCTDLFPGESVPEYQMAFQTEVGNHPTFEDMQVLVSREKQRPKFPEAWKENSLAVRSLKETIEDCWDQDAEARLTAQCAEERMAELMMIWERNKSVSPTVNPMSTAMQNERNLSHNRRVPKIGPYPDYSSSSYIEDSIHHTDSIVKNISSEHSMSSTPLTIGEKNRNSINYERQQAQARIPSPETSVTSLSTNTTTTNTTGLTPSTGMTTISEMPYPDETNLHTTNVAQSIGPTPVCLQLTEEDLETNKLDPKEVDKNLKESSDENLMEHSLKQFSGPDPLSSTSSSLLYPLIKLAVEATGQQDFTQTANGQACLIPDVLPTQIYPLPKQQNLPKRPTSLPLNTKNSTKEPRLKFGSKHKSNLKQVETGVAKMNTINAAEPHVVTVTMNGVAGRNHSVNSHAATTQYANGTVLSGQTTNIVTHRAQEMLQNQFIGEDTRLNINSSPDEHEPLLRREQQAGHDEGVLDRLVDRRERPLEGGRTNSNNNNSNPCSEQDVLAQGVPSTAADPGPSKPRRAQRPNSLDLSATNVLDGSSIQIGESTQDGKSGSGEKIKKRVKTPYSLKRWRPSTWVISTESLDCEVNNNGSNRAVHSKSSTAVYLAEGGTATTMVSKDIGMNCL
Procedure, shortened: (§1)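 Radiometric kinase activity assays were run with ATP at Km and compounds at 10 µM, and remaining activity (%) was reported. A separate competitive binding screen measured DNA-tagged kinase displaced from immobilized active-site ligands by qPCR, giving percent kinase still bound at 10 µM compound in DMSO.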

[2] = molecular target: NEK4 (Homo sapiens, UniProt P51957)
NEK4, sequence (P51957 whole entry): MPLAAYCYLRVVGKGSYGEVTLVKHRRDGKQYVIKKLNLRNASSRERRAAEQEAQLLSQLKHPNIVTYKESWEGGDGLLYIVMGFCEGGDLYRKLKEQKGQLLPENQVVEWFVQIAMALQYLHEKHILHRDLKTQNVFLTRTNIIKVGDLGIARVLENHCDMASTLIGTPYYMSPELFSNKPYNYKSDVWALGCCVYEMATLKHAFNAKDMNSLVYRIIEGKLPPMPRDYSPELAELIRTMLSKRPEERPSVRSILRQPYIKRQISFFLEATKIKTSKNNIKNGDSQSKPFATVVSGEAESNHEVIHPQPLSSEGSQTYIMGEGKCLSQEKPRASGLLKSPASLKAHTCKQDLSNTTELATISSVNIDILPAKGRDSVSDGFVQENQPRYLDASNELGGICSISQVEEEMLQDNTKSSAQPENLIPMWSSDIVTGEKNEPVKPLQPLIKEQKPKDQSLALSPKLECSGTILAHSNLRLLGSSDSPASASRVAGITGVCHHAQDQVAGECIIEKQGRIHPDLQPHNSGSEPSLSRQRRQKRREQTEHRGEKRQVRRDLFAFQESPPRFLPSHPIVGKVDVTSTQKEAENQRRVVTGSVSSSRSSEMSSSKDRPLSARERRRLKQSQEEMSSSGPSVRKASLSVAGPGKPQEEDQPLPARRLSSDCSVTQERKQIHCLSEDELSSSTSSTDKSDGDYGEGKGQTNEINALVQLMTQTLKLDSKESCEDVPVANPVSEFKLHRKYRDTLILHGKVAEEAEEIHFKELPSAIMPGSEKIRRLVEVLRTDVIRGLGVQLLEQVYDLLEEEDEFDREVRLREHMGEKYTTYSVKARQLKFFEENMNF
Procedure, shortened: as §1

[3] = molecular target: STK32B(h) (Homo sapiens, UniProt Q9NY57)
STK32B(h), sequence (Q9NY57 whole entry): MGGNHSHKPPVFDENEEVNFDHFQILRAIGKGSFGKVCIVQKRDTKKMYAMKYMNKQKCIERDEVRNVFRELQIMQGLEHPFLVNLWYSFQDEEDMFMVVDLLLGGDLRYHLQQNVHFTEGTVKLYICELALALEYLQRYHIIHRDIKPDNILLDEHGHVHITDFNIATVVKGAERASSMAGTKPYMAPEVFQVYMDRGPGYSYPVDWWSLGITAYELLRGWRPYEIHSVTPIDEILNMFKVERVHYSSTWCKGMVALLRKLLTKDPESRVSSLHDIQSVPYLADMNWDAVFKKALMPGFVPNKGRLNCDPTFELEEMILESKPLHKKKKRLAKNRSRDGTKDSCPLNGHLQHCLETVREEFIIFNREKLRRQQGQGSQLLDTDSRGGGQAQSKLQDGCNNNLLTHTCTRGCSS
Procedure, shortened: as §1

[4] = molecular target: T2, Mer(h) (Homo sapiens, UniProt Q12866)
T2 construct: gene MERTK
T2 sequence (Q12866 1-999): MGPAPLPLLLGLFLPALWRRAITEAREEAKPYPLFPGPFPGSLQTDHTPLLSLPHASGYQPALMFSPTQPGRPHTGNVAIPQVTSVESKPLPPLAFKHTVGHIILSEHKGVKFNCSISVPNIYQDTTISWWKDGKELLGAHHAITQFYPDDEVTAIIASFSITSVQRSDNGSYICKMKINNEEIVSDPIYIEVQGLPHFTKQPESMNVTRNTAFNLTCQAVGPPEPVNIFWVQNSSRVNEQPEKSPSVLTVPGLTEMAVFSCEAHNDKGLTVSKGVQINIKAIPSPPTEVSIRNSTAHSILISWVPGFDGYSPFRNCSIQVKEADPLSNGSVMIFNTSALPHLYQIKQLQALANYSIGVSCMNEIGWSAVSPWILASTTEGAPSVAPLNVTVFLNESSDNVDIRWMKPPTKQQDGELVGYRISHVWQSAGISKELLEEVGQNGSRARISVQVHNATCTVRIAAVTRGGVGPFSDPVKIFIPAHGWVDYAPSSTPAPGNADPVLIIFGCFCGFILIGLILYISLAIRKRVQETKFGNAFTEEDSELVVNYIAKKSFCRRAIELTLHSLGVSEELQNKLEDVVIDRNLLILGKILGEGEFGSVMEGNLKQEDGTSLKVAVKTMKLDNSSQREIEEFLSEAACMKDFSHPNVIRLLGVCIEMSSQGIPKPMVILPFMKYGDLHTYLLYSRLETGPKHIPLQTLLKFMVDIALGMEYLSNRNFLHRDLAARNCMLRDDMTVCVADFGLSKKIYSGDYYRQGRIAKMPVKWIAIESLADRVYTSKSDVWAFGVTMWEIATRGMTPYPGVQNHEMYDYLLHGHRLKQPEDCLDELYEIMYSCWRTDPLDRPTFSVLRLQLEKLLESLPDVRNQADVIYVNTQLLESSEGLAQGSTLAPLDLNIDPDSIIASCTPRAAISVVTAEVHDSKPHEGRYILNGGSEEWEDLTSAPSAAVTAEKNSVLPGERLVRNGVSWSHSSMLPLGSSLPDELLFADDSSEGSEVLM
Procedure, shortened: as §1

[5] = molecular target: T3, Pim-2(h) (Homo sapiens, UniProt Q9P1W9)
T3 construct: gene PIM2
T3 sequence (Q9P1W9 whole entry): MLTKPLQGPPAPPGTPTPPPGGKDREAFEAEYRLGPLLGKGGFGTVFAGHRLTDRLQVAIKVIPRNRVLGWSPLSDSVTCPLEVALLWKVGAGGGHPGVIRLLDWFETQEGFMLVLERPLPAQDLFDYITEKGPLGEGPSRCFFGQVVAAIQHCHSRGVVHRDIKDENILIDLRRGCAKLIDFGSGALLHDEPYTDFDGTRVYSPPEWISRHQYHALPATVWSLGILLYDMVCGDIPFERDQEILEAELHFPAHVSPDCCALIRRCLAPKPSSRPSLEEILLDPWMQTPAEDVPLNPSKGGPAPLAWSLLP
Procedure, shortened: as §1

[6] = molecular target: T4, cKit(D816H)(h) (Homo sapiens, UniProt P10721, D816H)
T4 construct: gene KIT
T4 sequence (P10721 whole entry D816H): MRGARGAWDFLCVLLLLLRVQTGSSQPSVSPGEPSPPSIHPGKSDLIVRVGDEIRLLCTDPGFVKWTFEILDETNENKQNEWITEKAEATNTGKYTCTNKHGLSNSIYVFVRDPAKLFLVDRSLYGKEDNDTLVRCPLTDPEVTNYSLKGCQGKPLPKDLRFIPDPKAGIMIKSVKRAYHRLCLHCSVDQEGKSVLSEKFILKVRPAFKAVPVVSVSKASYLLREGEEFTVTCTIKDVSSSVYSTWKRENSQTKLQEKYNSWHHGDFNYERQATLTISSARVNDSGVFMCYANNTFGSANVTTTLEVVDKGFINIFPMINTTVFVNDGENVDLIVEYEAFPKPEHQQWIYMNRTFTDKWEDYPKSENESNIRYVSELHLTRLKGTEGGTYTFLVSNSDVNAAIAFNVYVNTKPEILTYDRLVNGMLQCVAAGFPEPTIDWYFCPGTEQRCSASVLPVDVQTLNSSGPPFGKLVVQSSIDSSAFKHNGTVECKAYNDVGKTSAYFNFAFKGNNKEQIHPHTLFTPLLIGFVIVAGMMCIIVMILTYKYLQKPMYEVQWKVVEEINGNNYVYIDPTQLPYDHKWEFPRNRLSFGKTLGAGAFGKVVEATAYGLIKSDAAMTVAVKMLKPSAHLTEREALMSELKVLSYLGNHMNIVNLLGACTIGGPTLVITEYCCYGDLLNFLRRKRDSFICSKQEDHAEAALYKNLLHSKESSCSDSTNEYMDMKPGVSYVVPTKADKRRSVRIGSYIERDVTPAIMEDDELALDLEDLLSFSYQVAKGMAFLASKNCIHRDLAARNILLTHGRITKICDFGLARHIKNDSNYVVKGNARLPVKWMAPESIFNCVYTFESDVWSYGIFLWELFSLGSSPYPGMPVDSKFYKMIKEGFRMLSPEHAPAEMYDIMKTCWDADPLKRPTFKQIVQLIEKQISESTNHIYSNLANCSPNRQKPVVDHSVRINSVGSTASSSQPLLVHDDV
Procedure, shortened: as §1

[7] = read-out: Residual activity (%) 5at
[8] = read-out: Residual activity (%) 5as
[9] = read-out: Residual activity (%) 5ay
[10] = read-out: Residual activity (%) Spautin-1 5aa

For `Fc1ccc2ncnc(NCCc3ccc(Cl)cc3)c2c1` [5at, N-[2-(4-Chlorophenyl)Ethyl]-6-Fluoro-4-Quinazolinamine], the remaining activity at 10 µM [1, 7] was 103%, the remaining activity at 10 µM [2, 7] was 12% and the remaining activity at 10 µM [3, 7] was 97%. The remaining activity at 10 µM [4, 7] was 89%, the remaining activity at 10 µM [5, 7] was 70% and the remaining activity at 10 µM [6, 7] was 95%.
For `Fc1ccc(CCNc2ncnc3ccc(F)cc23)cc1` [5as, 6-Fluoro-N-[2-(4-Fluorophenyl)Ethyl]-4-Quinazolinamine], the remaining activity at 10 µM [1, 8] was 108%, the remaining activity at 10 µM [3, 8] was 92% and the remaining activity at 10 µM [4, 8] was 83%. For the same molecule, the remaining activity at 10 µM [5, 8] was 73% and the remaining activity at 10 µM [6, 8] was 95%.
`COc1ccc2ncnc(Nc3cccc(F)c3)c2c1` [5ay, N-(3-Fluorophenyl)-6-Methoxy-4-Quinazolinamine] gave a remaining activity at 10 µM [1, 9] of 99%, a remaining activity at 10 µM [2, 9] of 30% and a remaining activity at 10 µM [3, 9] of 93%. The remaining activity at 10 µM [4, 9] was 68%, the remaining activity at 10 µM [5, 9] was 76% and the remaining activity at 10 µM [6, 9] was 89%.
`Fc1ccc(CNc2ncnc3ccc(F)cc23)cc1` [5aa, 6-Fluoro-N-(4-fluorobenzyl)-4-Quinazolinamine] was tested, and the remaining activity at 10 µM [1, 10] was 115%, the remaining activity at 10 µM [2, 10] was 71% and the remaining activity at 10 µM [3, 10] was 95%. For the same molecule, the remaining activity at 10 µM [4, 10] was 83%, the remaining activity at 10 µM [5, 10] was 80% and the remaining activity at 10 µM [6, 10] was 115%.
